Entries after “also recorded” stand apart in the source; their conditions may differ.
Tests used:
Mouse bone marrow cells [1] = assay: in vitro RANKL-dependent osteoclastogenesis, TRAP positive osteoclast count; format: cell-based
Procedure: Cultures on plastic plates were fixed and stained for TRAP (tartrate resistant acid […]). TRAP positive multi-nuclear (>3 nuclei) osteoclast cells were counted.
B. Mouse bone marrow cells were cultured in the presence of 25 ng/ml M-CSF with 50 ng/ml RANKL in 48-well plates. On day 3 d-PDMP (1.25, 5 or 20 μM), NB-DNJ, NB-DGJ, or N-OD-DNJ (5, 50, or 500 μM) were added. Cells were cultured for another 24 hours before fixed and stained for TRAP. TRAP positive osteoclast cells mature were counted on day 4 (left). Morphology of 4 day osteoclasts.

[2] = system: human, monocyte-derived OC; assay: RANKL- and M-CSF-dependent development of human monocyte-derived OC; format: cell-based; settings: added either in the beginning or during OC differentiation cultures
osteoclast activation [3] = assay: in vivo alpha-galactosylceramide-induced OC activation, serum CTX levels; design: species or system C57BL/6 mice
Procedure: NB-DNJ (500 mg/Kg) or PBS were injected intraperitoneal (i.p.) once a day for 6 consecutive days in 8 wk old C57BL/6 mice. Alpha-galactosylceramide or PBS was administered by a single i.p. injection of 2 μg on day 3. Serum collected on day 7 was used to determine carboxyterminal cross-linking telopeptide of type 1 collagen (CTX) levels (n=4-5 8 wk old female C57BL/6 mice).

[4] = system: MAPK signaling (ERK, p38, JNK); assay: MAPK signalling during osteoclastogenesis, immunoblot pERK1/2, pP38, pJNK after RANKL or M-CSF; format: cell-based, mouse; settings: BMCs day 3, serum starved overnight
Procedure: (§1) BMCs were cultured to day 3 then starved in 0.5% serum medium overnight. Cells were treated with RANKL (A) or M-CSF (B) for the time points indicated and then immunoblotted with α-pERK1/2, α-pP38, α-pJNK antibodies. Membranes were stripped and restained with α-ERK, α-P38, α-JNK antibodies. […] Overnight serum starved OC were treated as indicated as subsequently stained with anti-NFATc1 and viewed by immunofluorescent microscopy. NB-DNJ abrogated the M-CSF+RANKL-induced accumulation of NFAtc1 in the nyclei. (D) BMCs were cultured 48 h with different combination of M-CSF, RANKL and NB-DNJ. Cells were collected and nuclear protein extracted and NFATc1 expression was checked by Western blot. Staining of histone-1 served as loading control.

[5] = system: MAPK signaling (ERK, p38, JNK); assay: GM3-induced ERK, P38, JNK phosphorylation in OC, immunoblot; format: cell-based, mouse
Procedure: D. OC were cultured with M-CSF+RANKL to day 3 then starved in 0.5% serum medium overnight. Cells were treated with GM3 or GM3+NB-DNJ for the time points indicated and then immunoblotted with α-pERK1/2, α-pP38, α-pJNK antibodies. Membranes were stripped and restained with α-ERK, α-P38, α-JNK antibodies.

NFATc1 = NFATc1 nuclear accumulation in OC (immunofluorescence, Western blot of nuclear protein); format: cell-based, mouse
Procedure: as §1

[6] = system: RAW 264.7 murine macrophage cells; assay: Association of TRAF6 and Src with lipid rafts, sucrose gradient fractionation; format: cell-based; settings: 50 ng/ml RANKL, 4 days
Procedure: Localization of TRAF6, […] GM1 gangliosides in lipid rafts (fraction 3-5) or non-raft fractions (fraction 7-9) in RAW 264.7 murine macrophage cells were cultured in medium only (control), in the presence of 50 ng/ml RANKL or RANKL+NB-DNJ in 48-well plates for 4 days. Cell lysates were prepared and separated using discontinuous sucrose gradient ultracentrifugation. A total of 9 fractions (1 ml each) were collected from the top to the bottom of the gradients, fraction 2 to 5 were positive for GM1 gangliosides, i.e. contained lipid rafts. The non-raft fractions were 7 to 9. Without RANKL, TRAF6 localises in the non-raft fraction while Src is presented in both raft and nonraft fractions. After RANKL treatment, TRAF6 was detected in raft fraction and Src almost totally shifted into the raft fractions.

β-glucosidase = settings: Platt et al. 1994; cited from earlier work
α-glucosidase = settings: Platt et al. 1994; cited from earlier work
osteoclast activation [7] = assay: in vivo RANKL-induced OC activation, serum CTX levels; design: species or system mice; settings: NB-DNJ 500 mg/Kg i.p. daily, RANKL 4 mg/day i.p. from day 3
[8] = biological target: T1, ceramide glucosyltransferase (CGT) (Homo sapiens, UniProt Q16739); settings: literature; cited from earlier work
T1 sequence (Q16739 1-394): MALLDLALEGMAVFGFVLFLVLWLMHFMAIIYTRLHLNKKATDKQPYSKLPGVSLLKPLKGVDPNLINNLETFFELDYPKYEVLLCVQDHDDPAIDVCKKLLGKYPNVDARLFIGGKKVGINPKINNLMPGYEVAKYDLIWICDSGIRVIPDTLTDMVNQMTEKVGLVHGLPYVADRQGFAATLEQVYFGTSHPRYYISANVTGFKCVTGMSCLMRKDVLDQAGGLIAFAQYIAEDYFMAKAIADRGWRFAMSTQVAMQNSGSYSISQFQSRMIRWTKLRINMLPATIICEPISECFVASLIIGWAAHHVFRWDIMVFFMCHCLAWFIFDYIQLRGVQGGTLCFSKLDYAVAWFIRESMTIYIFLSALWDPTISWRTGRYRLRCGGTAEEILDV

osteoclast formation = settings: Iwamoto et al. 2001, cited from earlier work
Mouse bone marrow cells [9] = assay: Promotion of osteoclastogenesis by GM3 and IGF-1 with M-CSF and RANKL, TRAP positive mature osteoclast count; format: cell-based
Procedure: A. Mouse bone marrow cells were cultured in the presence of 25 ng/ml M-CSF with 50 ng/ml RANKL and GM3 (0.05, 0.5 or 5 μM) in 48-well plates for 4 days. Cultures on plastic plates were fixed and stained for TRAP. TRAP positive mature osteoclast cells were counted.
As well as RANKL+M-CSF, IGF-1 at the indicated concentrations was added.
C. […] OC were developed in the presence of RANKL+M-CSF (control), or these two cytokines plus IGF-1, GM3 or IGF-1+GM3.

Compound: CCCCN1C[C@H](O)[C@@H](O)[C@@H](O)[C@H]1CO [NB-DGJ, N-butyl-deoxygalactonojirimycin]
- reduction in OC activation compared with NB-DNJ (Mouse bone marrow cells [1]): significantly less potent

Compound: CCCCN1C[C@H](O)[C@@H](O)[C@H](O)[C@H]1CO [NB-DNJ, N-butyl-deoxynojirimycin]
- inhibition of RANKL- and M-CSF-dependent development of human monocyte-derived OC [2]: inhibit RANKL- and M-CSF-dependent development of murine as well as human, monocyte-derived OC in a dose dependent manner
- serum CTX levels, αGC-induced OC activation (osteoclast activation [3]; NB-DNJ 500 mg/Kg i.p. daily plus alpha-galactosylceramide 2 μg i.p. day 3, serum day 7): inhibits a-galactosylceramide-induced OC activation; also recorded: returned to baseline
- serum CTX levels, NB-DNJ only (osteoclast activation [3]; mice receiving only NB-DNJ, p>0.05): not significantly different to vehicle controls
- inhibition of RANKL- and M-CSF-dependent development of murine OC (Mouse bone marrow cells [1]; added either in the beginning or during OC differentiation cultures): inhibit RANKL- and M-CSF-dependent development of murine as well as human, monocyte-derived OC in a dose dependent manner
- RANKL- and M-CSF-dependent phosphorylation of ERK, JNK and p38 [4]: phosphotylation of p38 and to a lesser extend of ERKa,d Jnk is observed; also recorded: significantly reduced
- GM3-promoted phosphorylation of ERK, P38 and JNK, effect of NB-DNJ [5]: abrogated
- nuclear NFATc1 expression (NFATc1; Western blot, BMCs cultured 48 h with M-CSF, RANKL): Considerably less nuclear NFTc1
- M-CSF+RANKL-induced accumulation of NFATc1 in the nuclei (NFATc1; immunofluorescent microscopy, serum starved OC): abrogated; also recorded: reduced localisation of NFATc in the nucleus
- RANKL-induced localisation of TRAF6 and Src in lipid rafts [6]: TRAF6 and Src are excluded from the rafts
- β-glucosidase inhibitory activity (β-glucosidase): have both α- and β-glucosidase inhibitory activities
- α-glucosidase inhibitory activity (α-glucosidase): have both α- and β-glucosidase inhibitory activities
- serum CTX levels, RANKL-induced OC activation (osteoclast activation [7]): inhibits RANKL-induced OC activation

Compound: CCCCCCCCCC(=O)N[C@H](CN1CCOCC1)[C@H](O)c1ccccc1 [d-PDMP, D-threo-1-phenyl-2-decanoylamin-3-morpholino-1-propanol]
- reduction in OC activation compared with NB-DNJ (Mouse bone marrow cells [1]): as effective
- inhibitory effect on CGT [8]: known CGT inhibitor
- inhibition of osteoclast formation / OC development (osteoclast formation): can inhibit the osteoclast formation; also recorded: can prevent OC development

Compound: CCCCCCCCCCCCCCCCCCCCCCCCCC(=O)N[C@@H](CO[C@H]1O[C@H](CO)[C@H](O)[C@H](O)[C@H]1O)[C@H](O)[C@H](O)CCCCCCCCCCCCCC [αGC, alpha-galactosylceramide]
- increase of serum CTX levels (osteoclast activation [3]; mice receiving αGC, p<0.01): ~50%

Compound: IGF-1: growth factor known to promote myeloma growth and OC activation
- osteoclastogenesis with IGF-1 (Mouse bone marrow cells [9]; RANKL+M-CSF plus IGF-1): promotes osteoclastogenesis
- OC maturation, GM3 plus IGF-1 (Mouse bone marrow cells [9]; RANKL+M-CSF plus IGF-1 and GM3): co-operates with GM3 in promoting osteoclastogenesis

Compound: lactosylceramide
- effect on RANKL-dependent osteoclastogenesis (osteoclast formation; exogenous, in vitro): synergistic effect

Reference: patent US20110136868A1, “AGENTS FOR INHIBITING OSTEOCLASTOGENESIS AND/OR OSTEOCLAST ACTIVATION” (University of Oxford, priority 2009, published 2011)
